Laboratory results: PubChem BioAssay AID1259407 (Chemical Carcinogenesis Research Information System (CCRIS), 2018)
Activity calls are given as the source filed them. No rule for the calls is given here.

System: CCRIS mutagenicity, Ames/micronucleus/aberration tests
Test: CCRIS mutagenicity studies
[1] = Test System: AMES SALMONELLA TYPHIMURIUM, Strain/Indicator: TA98, Metabolic Activation: NONE, Method: PREINCUBATION
[2] = Test System: AMES SALMONELLA TYPHIMURIUM, Strain/Indicator: TA98, Metabolic Activation: NONE, Method: STANDARD PLATE
[3] = Test System: AMES SALMONELLA TYPHIMURIUM, Strain/Indicator: TA98, Metabolic Activation: RAT, LIVER, S-9, AROCLOR 1254, Method: STANDARD PLATE
[4] = Test System: AMES SALMONELLA TYPHIMURIUM, Strain/Indicator: TA100, Metabolic Activation: NONE, Method: STANDARD PLATE
[5] = Test System: AMES SALMONELLA TYPHIMURIUM, Strain/Indicator: TA100, Metabolic Activation: RAT, LIVER, S-9, AROCLOR 1254, Method: STANDARD PLATE
[6] = Test System: AMES SALMONELLA TYPHIMURIUM, Strain/Indicator: TA1535, Metabolic Activation: NONE, Method: STANDARD PLATE
[7] = Test System: AMES SALMONELLA TYPHIMURIUM, Strain/Indicator: TA1535, Metabolic Activation: RAT, LIVER, S-9, AROCLOR 1254, Method: STANDARD PLATE
[8] = Test System: AMES SALMONELLA TYPHIMURIUM, Strain/Indicator: TA1537, Metabolic Activation: NONE, Method: STANDARD PLATE
[9] = Test System: AMES SALMONELLA TYPHIMURIUM, Strain/Indicator: TA1537, Metabolic Activation: RAT, LIVER, S-9, AROCLOR 1254, Method: STANDARD PLATE

## O=C(Nc1ccc([N+](=O)[O-])cc1Cl)c1cc(Cl)ccc1O
Test System: AMES SALMONELLA TYPHIMURIUM, Strain/Indicator: TA98(NR), Metabolic Activation: RAT, LIVER, S-9, AROCLOR 1254, Method: STANDARD PLATE
  mutagenic call: inactive; negative
[1]
  mutagenic call: inactive; negative
Test System: AMES SALMONELLA TYPHIMURIUM, Strain/Indicator: TA98, Metabolic Activation: RAT, LIVER, S-9, AROCLOR 1254, Method: PREINCUBATION
  mutagenic call: active; positive
Test System: AMES SALMONELLA TYPHIMURIUM, Strain/Indicator: TA1538, Metabolic Activation: NONE, Method: PREINCUBATION
  mutagenic call: inactive; negative
Test System: AMES SALMONELLA TYPHIMURIUM, Strain/Indicator: TA1538, Metabolic Activation: RAT, LIVER, S-9, AROCLOR 1254, Method: PREINCUBATION
  mutagenic call: active; positive
Test System: AMES SALMONELLA TYPHIMURIUM, Strain/Indicator: TA1978, Metabolic Activation: NONE, Method: PREINCUBATION
  mutagenic call: inactive; negative
Test System: AMES SALMONELLA TYPHIMURIUM, Strain/Indicator: TA1978, Metabolic Activation: RAT, LIVER, S-9, AROCLOR 1254, Method: PREINCUBATION
  mutagenic call: inactive; negative
Test System: AMES SALMONELLA TYPHIMURIUM, Strain/Indicator: UTH8413, Metabolic Activation: NONE, Method: PREINCUBATION
  mutagenic call: inactive; negative
Test System: AMES SALMONELLA TYPHIMURIUM, Strain/Indicator: UTH8413, Metabolic Activation: RAT, LIVER, S-9, AROCLOR 1254, Method: PREINCUBATION
  mutagenic call: inactive; negative
Test System: AMES SALMONELLA TYPHIMURIUM, Strain/Indicator: YG1020, Metabolic Activation: RAT, LIVER, S-9, AROCLOR 1254, Method: STANDARD PLATE
  mutagenic call: active; positive
Test System: AMES SALMONELLA TYPHIMURIUM, Strain/Indicator: YG1021, Metabolic Activation: RAT,LIVER, S-9, AROCLOR 1254, Method: STANDARD PLATE
  mutagenic call: active; positive
Test System: AMES SALMONELLA TYPHIMURIUM, Strain/Indicator: YG1024, Metabolic Activation: RAT, LIVER, S-9, AROCLOR 1254, Method: STANDARD PLATE
  mutagenic call: active; positive

## O=C(Cl)OCc1ccccc1
[2]
  mutagenic call: inactive; negative
[3]
  mutagenic call: inactive; negative
[4]
  mutagenic call: inactive; negative
[5]
  mutagenic call: inactive; negative
[6]
  mutagenic call: inactive; negative
[7]
  mutagenic call: inactive; negative
[8]
  mutagenic call: inactive; negative
[9]
  mutagenic call: inactive; negative

## Cl/C=C/C[N+]12CN3CN(CN(C3)C1)C2
Test System: AMES SALMONELLA TYPHIMURIUM, Strain/Indicator: TA97, Metabolic Activation: HAMSTER, LIVER, S-9, AROCLOR 1254 (5, 10 OR 30%), Method: PREINCUBATION
  mutagenic call: inactive; negative
Test System: AMES SALMONELLA TYPHIMURIUM, Strain/Indicator: TA97, Metabolic Activation: NONE, Method: PREINCUBATION
  mutagenic call: inactive; negative
Test System: AMES SALMONELLA TYPHIMURIUM, Strain/Indicator: TA97, Metabolic Activation: RAT, LIVER, S-9, AROCLOR 1254 (5, 10 OR 30%), Method: PREINCUBATION
  mutagenic call: inactive; negative
Test System: AMES SALMONELLA TYPHIMURIUM, Strain/Indicator: TA98, Metabolic Activation: HAMSTER, LIVER, S-9, AROCLOR 1254 (5 OR 30%), Method: PREINCUBATION
  mutagenic call: inactive; negative
Test System: AMES SALMONELLA TYPHIMURIUM, Strain/Indicator: TA98, Metabolic Activation: HAMSTER, LIVER, S-9, AROCLOR 1254 (10%), Method: PREINCUBATION
  mutagenic call: inactive; negative
Test System: AMES SALMONELLA TYPHIMURIUM, Strain/Indicator: TA98, Metabolic Activation: HAMSTER, LIVER, S-9, AROCLOR 1254, Method: STANDARD PLATE
  mutagenic call: inactive; negative
[1]
  mutagenic call: active; positive
[2]
  mutagenic call: inactive; negative
Test System: AMES SALMONELLA TYPHIMURIUM, Strain/Indicator: TA98, Metabolic Activation: RAT, LIVER, S-9, AROCLOR 1254 (5 OR 30%), Method: PREINCUBATION
  mutagenic call: inactive; negative
Test System: AMES SALMONELLA TYPHIMURIUM, Strain/Indicator: TA98, Metabolic Activation: RAT, LIVER, S-9, AROCLOR 1254 (10%), Method: PREINCUBATION
  mutagenic call: inactive; negative
[3]
  mutagenic call: inactive; negative
Test System: AMES SALMONELLA TYPHIMURIUM, Strain/Indicator: TA100, Metabolic Activation: HAMSTER, LIVER, S-9, AROCLOR 1254 (5 OR 30%), Method: PREINCUBATION
  mutagenic call: inactive; negative
Test System: AMES SALMONELLA TYPHIMURIUM, Strain/Indicator: TA100, Metabolic Activation: HAMSTER, LIVER, S-9, AROCLOR 1254 (10%), Method: PREINCUBATION
  mutagenic call: inactive; negative
Test System: AMES SALMONELLA TYPHIMURIUM, Strain/Indicator: TA100, Metabolic Activation: HAMSTER, LIVER, S-9, AROCLOR 1254, Method: STANDARD PLATE
  mutagenic call: inactive; negative
Test System: AMES SALMONELLA TYPHIMURIUM, Strain/Indicator: TA100, Metabolic Activation: NONE, Method: PREINCUBATION
  mutagenic call: inactive; negative
[4]
  mutagenic call: inactive; negative
Test System: AMES SALMONELLA TYPHIMURIUM, Strain/Indicator: TA100, Metabolic Activation: RAT, LIVER, S-9, AROCLOR 1254 (5 OR 30%), Method: PREINCUBATION
  mutagenic call: inactive; negative
Test System: AMES SALMONELLA TYPHIMURIUM, Strain/Indicator: TA100, Metabolic Activation: RAT, LIVER, S-9, AROCLOR 1254 (10%), Method: PREINCUBATION
  mutagenic call: inactive; negative
[5]
  mutagenic call: inactive; negative
Test System: AMES SALMONELLA TYPHIMURIUM, Strain/Indicator: TA1535, Metabolic Activation: HAMSTER, LIVER, S-9, AROCLOR 1254 (10%), Method: PREINCUBATION
  mutagenic call: inactive; negative
Test System: AMES SALMONELLA TYPHIMURIUM, Strain/Indicator: TA1535, Metabolic Activation: HAMSTER, LIVER, S-9, AROCLOR 1254, Method: STANDARD PLATE
  mutagenic call: inactive; negative
Test System: AMES SALMONELLA TYPHIMURIUM, Strain/Indicator: TA1535, Metabolic Activation: NONE, Method: PREINCUBATION
  mutagenic call: inactive; negative
[6]
  mutagenic call: inactive; negative
Test System: AMES SALMONELLA TYPHIMURIUM, Strain/Indicator: TA1535, Metabolic Activation: RAT, LIVER, S-9, AROCLOR 1254 (10%), Method: PREINCUBATION
  mutagenic call: inactive; negative
[7]
  mutagenic call: inactive; negative
Test System: AMES SALMONELLA TYPHIMURIUM, Strain/Indicator: TA1537, Metabolic Activation: HAMSTER, LIVER, S-9, AROCLOR 1254 (5, 10 OR 30%), Method: PREINCUBATION
  mutagenic call: inactive; negative
Test System: AMES SALMONELLA TYPHIMURIUM, Strain/Indicator: TA1537, Metabolic Activation: HAMSTER, LIVER, S-9, AROCLOR 1254, Method: STANDARD PLATE
  mutagenic call: inactive; negative
[8]
  mutagenic call: inactive; negative
Test System: AMES SALMONELLA TYPHIMURIUM, Strain/Indicator: TA1537, Metabolic Activation: RAT, LIVER, S-9, AROCLOR 1254 (5, 10 OR 30%), Method: PREINCUBATION
  mutagenic call: inactive; negative
[9]
  mutagenic call: inactive; negative
Test System: AMES SALMONELLA TYPHIMURIUM, Strain/Indicator: TA1538, Metabolic Activation: HAMSTER, LIVER, S-9, AROCLOR 1254, Method: STANDARD PLATE
  mutagenic call: inactive; negative
Test System: AMES SALMONELLA TYPHIMURIUM, Strain/Indicator: TA1538, Metabolic Activation: NONE, Method: STANDARD PLATE
  mutagenic call: inactive; negative
Test System: AMES SALMONELLA TYPHIMURIUM, Strain/Indicator: TA1538, Metabolic Activation: RAT, LIVER, S-9, AROCLOR 1254, Method: STANDARD PLATE
  mutagenic call: inactive; negative
Test System: MOUSE LYMPHOMA, Strain/Indicator: L5178Y (TK+/TK-), Metabolic Activation: NONE, Method: SUSPENSION/PLATE
  mutagenic call: active; positive. reevaluation of results: positive
Test System: MOUSE LYMPHOMA, Strain/Indicator: L5178Y (TK+/TK-), Metabolic Activation: RAT, LIVER, S-9, AROCLOR 1254, Method: SUSPENSION/PLATE
  mutagenic call: active; positive. reevaluation of results: positive
